Patent US10765114B2, “4-amino-6-(pyridyl and 2-substitutedphenyl)-picolinates and 6-amino-2-(pyridyl and 2-substitutedphenyl)-pyrimidine-4-carboxylates and their use as herbicides” (Dow AgroSciences LLC, priority 2013, dated 2020)
Like-named read-outs stand apart in the source and are kept apart here.

Key:
[1] = system: Key Grass and Sedge Weeds as well as Grass Crops; assay: Post-Emergent Test II (Table 6); type: in vivo; conditions: post-emergence, 336 h, 14 days after application; for pest or weed control at 70 g/ha: 70 g ai/ha; for pest or weed control at 140 g/ha: 140 g ai/ha
Outline: (§1)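 Visual injury ratings (0 = no injury, 100 = complete kill) taken 14 days after treatment, relative to untreated controls. Compounds, in an acetone/DMSO aqueous carrier with crop oil and surfactant, were applied by track sprayer at 187 L/ha, in a twofold dilution series from the top rate, to plants at the first to second true-leaf stage.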

[2] = system: Key Broadleaf Weed and Crop Species; assay: Post-Emergent Test II (Table 5); type: in vivo; conditions: post-emergence, 336 h; for pest or weed control at 70 g/ha: application rate 70 (kg ai/ha; footnote: g ai/ha); for pest or weed control at 140 g/ha: application rate 140 (kg ai/ha; footnote: g ai/ha)
Outline: as §1

[3] = CYPSS, read-out: Visual Growth Reduction (%) 14 Days After Application CYPSS
[4] = DIGSA: crabgrass (Digitaria sanguinalis), read-out: Visual Growth Reduction (%) 14 Days After Application DIGSA
[5] = ORYSS (crop), read-out: Visual Growth Reduction (%) 14 Days After Application ORYSS
[6] = SORVU: grain sorghum (Sorghum vulgare), read-out: Visual Growth Reduction (%) 14 Days After Application SORVU
[7] = TRZSS (crop), read-out: Visual Growth Reduction (%) 14 Days After Application TRZSS
[8] = ZEAMX: maize, corn (Zea mays), read-out: Visual Growth Reduction (%) 14 Days After Application ZEAMX
[9] = Abutilon theophrasti, ABUTH: velvetleaf (Abutilon theophrasti), read-out: Visual Growth Reduction (%) 14 Days After Application ABUTH
[10] = Amaranthus retroflexus, AMARE: redroot pigweed (Amaranthus retroflexus), read-out: Visual Growth Reduction (%) 14 Days After Application AMARE
[11] = Brassica napus, BRSSS: oilseed rape, canola (Brassica napus), read-out: Visual Growth Reduction (%) 14 Days After Application BRSSS
[12] = Chenopodium album, CHEAL: lambsquarters (Chenopodium album), read-out: Visual Growth Reduction (%) 14 Days After Application CHEAL
[13] = Euphorbia heterophylla, EPHHL: wild poinsettia (Euphorbia heterophylla), read-out: Visual Growth Reduction (%) 14 Days After Application EPHHL
[14] = Helianthus annuus, HELAN: sunflower (Helianthus annuus), read-out: Visual Growth Reduction (%) 14 Days After Application HELAN
[15] = Viola tricolor, VIOTR: wild pansy (Viola tricolor), read-out: Visual Growth Reduction (%) 14 Days After Application VIOTR
[16] = ECHSS, read-out: Visual Growth Reduction (%) 14 Days After Application ECHSS
[17] = SETFA: giant foxtail (Setaria faberi), read-out: Visual Growth Reduction (%) 14 Days After Application SETFA

| Compound | pest or weed control at 70 g/ha [1, 3] [%] | pest or weed control at 140 g/ha [1, 3] [%] | pest or weed control at 70 g/ha [1, 4] [%] | pest or weed control at 140 g/ha [1, 4] [%] | pest or weed control at 70 g/ha [1, 5] [%] | pest or weed control at 140 g/ha [1, 5] [%] | pest or weed control at 70 g/ha [1, 6] [%] | pest or weed control at 140 g/ha [1, 6] [%] | pest or weed control at 70 g/ha [1, 7] [%] | pest or weed control at 140 g/ha [1, 7] [%] | pest or weed control at 70 g/ha [1, 8] [%] | pest or weed control at 140 g/ha [1, 8] [%] | melting point [°C] | pest or weed control at 70 g/ha [2, 9] [%] | pest or weed control at 140 g/ha [2, 9] [%] | pest or weed control at 70 g/ha [2, 10] [%] | pest or weed control at 140 g/ha [2, 10] [%] | pest or weed control at 70 g/ha [2, 11] [%] | pest or weed control at 140 g/ha [2, 11] [%] | pest or weed control at 70 g/ha [2, 12] [%] | further results |
| --- | --- | --- | --- | --- | --- | --- | --- | --- | --- | --- | --- | --- | --- | --- | --- | --- | --- | --- | --- | --- | --- |
| Cc1c(-c2ccc(C(F)(F)F)nc2)nc(C(=O)O)c(Cl)c1N [Compound 51, 4-amino-5-chloro-3-methyl-6′-(trifluoromethyl)-[2,3′-bipyridine]-6-carboxylic acid] | 95 to 100 | 95 to 100 | 60 to 74 | 60 to 74 | 0 to 29 | 0 to 29 | 75 to 84 | 75 to 84 | 30 to 44 | 45 to 59 | 60 to 74 | 60 to 74 | 140 to 160 | 0 to 29 | 0 to 29 | 0 to 29 | 0 to 29 | 60 to 74 | 85 to 94 | 0 to 29 | pest or weed control at 140 g/ha [2, 12]: 85 to 94%; pest or weed control at 70 g/ha [2, 13]: 0 to 29%; pest or weed control at 140 g/ha [2, 13]: 0 to 29%; pest or weed control at 70 g/ha [2, 14]: 85 to 94%; pest or weed control at 140 g/ha [2, 14]: 85 to 94%; pest or weed control at 70 g/ha [2, 15]: 0 to 29%; pest or weed control at 140 g/ha [2, 15]: 0 to 29% |
| COC(=O)c1nc(-c2ccc(C(F)(F)F)nc2C)c(F)c(N)c1Cl [Compound 35] | 0 to 29 | 0 to 29 | 0 to 29 | 0 to 29 | 0 to 29 | 0 to 29 | 0 to 29 | 0 to 29 | 0 to 29 | 0 to 29 | 0 to 29 | 0 to 29 | 160 | 0 to 29 | 0 to 29 | 0 to 29 | 0 to 29 | 0 to 29 | 0 to 29 | 0 to 29 | pest or weed control at 70 g/ha [1, 16]: 0 to 29%; pest or weed control at 140 g/ha [1, 16]: 0 to 29%; pest or weed control at 70 g/ha [1, 17]: 0 to 29%; pest or weed control at 140 g/ha [1, 17]: 0 to 29%; pest or weed control at 140 g/ha [2, 12]: 0 to 29%; pest or weed control at 70 g/ha [2, 13]: 0 to 29%; pest or weed control at 140 g/ha [2, 13]: 0 to 29%; pest or weed control at 70 g/ha [2, 14]: 0 to 29%; pest or weed control at 140 g/ha [2, 14]: 0 to 29%; pest or weed control at 70 g/ha [2, 15]: 0 to 29%; pest or weed control at 140 g/ha [2, 15]: 0 to 29% |
| Cc1ccc(-c2nc(C(=O)O)c(Cl)c(N)c2F)cn1 [Compound 85] | 0 to 29 | 0 to 29 | 0 to 29 | 0 to 29 | 0 to 29 | 0 to 29 | 0 to 29 | 0 to 29 | 0 to 29 | 0 to 29 | 0 to 29 | 0 to 29 | 186 to 187 | 0 to 29 | 0 to 29 | 95 to 100 | 95 to 100 | 60 to 74 | 75 to 84 | 0 to 29 | pest or weed control at 70 g/ha [1, 16]: 45 to 59%; pest or weed control at 70 g/ha [1, 17]: 0 to 29%; pest or weed control at 140 g/ha [1, 17]: 0 to 29%; pest or weed control at 140 g/ha [2, 12]: 45 to 59%; pest or weed control at 70 g/ha [2, 13]: 0 to 29%; pest or weed control at 140 g/ha [2, 13]: 0 to 29%; pest or weed control at 70 g/ha [2, 14]: 30 to 44%; pest or weed control at 140 g/ha [2, 14]: 45 to 59%; pest or weed control at 70 g/ha [2, 15]: 0 to 29%; pest or weed control at 140 g/ha [2, 15]: 0 to 29% |
| COc1ccc(-c2nc(C(=O)O)c(Cl)c(N)c2F)cn1 [Compound 30] | 0 to 29 | 0 to 29 | 60 to 74 | 60 to 74 | 30 to 44 | 45 to 59 | 45 to 59 | 85 to 94 | 0 to 29 | 0 to 29 | 95 to 100 | 95 to 100 | 166 to 167 | 95 to 100 | 95 to 100 | 95 to 100 | 95 to 100 | 95 to 100 | 95 to 100 | 95 to 100 | pest or weed control at 70 g/ha [1, 16]: 95 to 100%; pest or weed control at 140 g/ha [1, 16]: 95 to 100%; pest or weed control at 70 g/ha [1, 17]: 75 to 84%; pest or weed control at 140 g/ha [1, 17]: 85 to 94%; pest or weed control at 140 g/ha [2, 12]: 95 to 100%; pest or weed control at 70 g/ha [2, 13]: 95 to 100%; pest or weed control at 140 g/ha [2, 13]: 95 to 100%; pest or weed control at 70 g/ha [2, 14]: 95 to 100%; pest or weed control at 140 g/ha [2, 14]: 95 to 100%; pest or weed control at 70 g/ha [2, 15]: 0 to 29%; pest or weed control at 140 g/ha [2, 15]: 0 to 29% |
